The target of the assay is Ephrin type-A receptor 2 (Mus musculus, UniProt Q03145). In words: Displacement of biotinylated Fc-tagged ephrin-A1 from C/N-terminal 6-His tagged mouse recombinant EphA2 (Ala22 to Ala535 residues) preincubated for 1 hr followed by ephrin-A1-Fc addition and measured after 4 to 5 hrs by ELISA assay. For orientation: In an ELISA, binding on a coated surface is turned into a signal by an enzyme label.

The term IC50 denotes the midpoint of a concentration-inhibition curve.

Ephrin type-A receptor 2, sequence (Q03145 whole entry): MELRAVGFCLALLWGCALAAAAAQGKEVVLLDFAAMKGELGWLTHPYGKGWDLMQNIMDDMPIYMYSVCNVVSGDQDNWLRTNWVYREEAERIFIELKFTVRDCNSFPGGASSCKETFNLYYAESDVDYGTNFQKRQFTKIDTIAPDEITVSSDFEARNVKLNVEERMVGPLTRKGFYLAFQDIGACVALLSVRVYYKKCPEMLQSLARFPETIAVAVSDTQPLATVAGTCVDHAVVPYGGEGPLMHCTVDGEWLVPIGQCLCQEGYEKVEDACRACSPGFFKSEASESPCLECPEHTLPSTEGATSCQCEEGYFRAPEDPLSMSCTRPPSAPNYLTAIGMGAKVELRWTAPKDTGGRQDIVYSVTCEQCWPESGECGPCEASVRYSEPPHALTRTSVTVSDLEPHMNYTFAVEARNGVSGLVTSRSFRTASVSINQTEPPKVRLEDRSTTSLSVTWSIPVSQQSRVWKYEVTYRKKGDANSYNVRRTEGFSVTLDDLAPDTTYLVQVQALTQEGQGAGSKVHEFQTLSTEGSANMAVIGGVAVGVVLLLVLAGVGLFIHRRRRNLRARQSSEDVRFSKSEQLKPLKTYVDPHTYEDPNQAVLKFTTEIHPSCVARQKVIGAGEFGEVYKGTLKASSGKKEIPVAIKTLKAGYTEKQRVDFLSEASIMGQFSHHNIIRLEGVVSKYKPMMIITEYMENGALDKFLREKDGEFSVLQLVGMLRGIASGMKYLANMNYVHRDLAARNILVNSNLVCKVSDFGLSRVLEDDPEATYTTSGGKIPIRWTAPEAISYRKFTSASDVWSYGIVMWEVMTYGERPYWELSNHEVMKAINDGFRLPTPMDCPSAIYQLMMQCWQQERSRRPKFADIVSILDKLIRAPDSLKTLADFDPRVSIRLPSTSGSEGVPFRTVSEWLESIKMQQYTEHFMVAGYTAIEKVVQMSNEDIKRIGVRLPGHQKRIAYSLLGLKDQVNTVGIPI

For the molecule `C[C@H](CCC(=O)N[C@H](CC(=O)O)Cc1cn(S(=O)(=O)c2cccnc2)c2ccccc12)[C@H]1CC[C@H]2[C@@H]3CC=C4C[C@@H](O)CC[C@]4(C)[C@H]3CC[C@]12C`, the IC50 turned out to be 16 µM. In the case of `C[C@H](CCC(=O)N[C@H](CC(=O)O)Cc1cn(S(=O)(=O)c2ccc([N+](=O)[O-])cc2)c2ccccc12)[C@H]1CC[C@H]2[C@@H]3CC=C4C[C@@H](O)CC[C@]4(C)[C@H]3CC[C@]12C` it was 3.6 µM; in that of `C[C@H](CCC(=O)N[C@H](CC(=O)O)Cc1cn(S(=O)(=O)c2cccc(N)c2)c2ccccc12)[C@H]1CC[C@H]2[C@@H]3CC=C4C[C@@H](O)CC[C@]4(C)[C@H]3CC[C@]12C`, 5.6 µM; in that of `C[C@H](CCC(=O)N[C@H](CC(=O)O)Cc1cn(S(=O)(=O)c2cccc(C(F)(F)F)c2)c2ccccc12)[C@H]1CC[C@H]2[C@@H]3CC=C4C[C@@H](O)CC[C@]4(C)[C@H]3CC[C@]12C`, 12 µM. As to `Cc1cccc(S(=O)(=O)n2cc(C[C@@H](CC(=O)O)NC(=O)CC[C@@H](C)[C@H]3CC[C@H]4[C@@H]5CC=C6C[C@@H](O)CC[C@]6(C)[C@H]5CC[C@]34C)c3ccccc32)c1`, the IC50 is 24 µM.

Regarding `C[C@H](CCC(=O)N[C@H](CC(=O)O)Cc1cn(S(=O)(=O)c2ccc(F)cc2)c2ccccc12)[C@H]1CC[C@H]2[C@@H]3CC=C4C[C@@H](O)CC[C@]4(C)[C@H]3CC[C@]12C`, the IC50 came to 8.2 µM. As to `C[C@H](CCC(=O)N[C@H](CC(=O)O)Cc1cn(S(=O)(=O)c2cccc([N+](=O)[O-])c2)c2ccccc12)[C@H]1CC[C@H]2[C@@H]3CC=C4C[C@@H](O)CC[C@]4(C)[C@H]3CC[C@]12C`, the IC50 came out at 38 µM. In the case of `C[C@H](CCC(=O)N[C@H](CC(=O)O)Cc1cn(S(=O)(=O)c2ccc(-c3ccccc3)cc2)c2ccccc12)[C@H]1CC[C@H]2[C@@H]3CC=C4C[C@@H](O)CC[C@]4(C)[C@H]3CC[C@]12C` it was 20 µM; in that of `C[C@H](CCC(=O)N[C@H](CC(=O)O)Cc1cn(S(=O)(=O)c2cccc(C#N)c2)c2ccccc12)[C@H]1CC[C@H]2[C@@H]3CC=C4C[C@@H](O)CC[C@]4(C)[C@H]3CC[C@]12C`, 24 µM. `C[C@H](CCC(=O)N[C@H](CC(=O)O)Cc1cn(S(=O)(=O)c2ccc(C#N)cc2)c2ccccc12)[C@H]1CC[C@H]2[C@@H]3CC=C4C[C@@H](O)CC[C@]4(C)[C@H]3CC[C@]12C`: the IC50 stood at 9.9 µM.

Turning to `C[C@H](CCC(=O)N[C@H](CC(=O)O)Cc1cn(S(=O)(=O)c2ccc(N)cc2)c2ccccc12)[C@H]1CC[C@H]2[C@@H]3CC=C4C[C@@H](O)CC[C@]4(C)[C@H]3CC[C@]12C`, the IC50 was 4.7 µM. Take `Cc1ccc(S(=O)(=O)n2cc(C[C@@H](CC(=O)O)NC(=O)CC[C@@H](C)[C@H]3CC[C@H]4[C@@H]5CC=C6C[C@@H](O)CC[C@]6(C)[C@H]5CC[C@]34C)c3ccccc32)cc1`: the IC50 is 8.3 µM. In the case of `C[C@H](CCC(=O)N[C@H](CC(=O)O)Cc1cn(S(=O)(=O)c2cccc(F)c2)c2ccccc12)[C@H]1CC[C@H]2[C@@H]3CC=C4C[C@@H](O)CC[C@]4(C)[C@H]3CC[C@]12C` it was 29 µM. For `C[C@H](CCC(=O)N[C@H](CC(=O)O)Cc1cn(S(=O)(=O)c2ccsc2)c2ccccc12)[C@H]1CC[C@H]2[C@@H]3CC=C4C[C@@H](O)CC[C@]4(C)[C@H]3CC[C@]12C`, the IC50 is 5.5 µM. The value for `C[C@H](CCC(=O)N[C@H](CC(=O)O)Cc1cn(S(=O)(=O)c2ccoc2)c2ccccc12)[C@H]1CC[C@H]2[C@@H]3CC=C4C[C@@H](O)CC[C@]4(C)[C@H]3CC[C@]12C` was 6.9 µM; that for `C[C@H](CCC(=O)N[C@H](CC(=O)O)Cc1cn(S(=O)(=O)c2cccc(-c3ccccc3)c2)c2ccccc12)[C@H]1CC[C@H]2[C@@H]3CC=C4C[C@@H](O)CC[C@]4(C)[C@H]3CC[C@]12C` was 16 µM.

The record behind these values is ChEMBL document CHEMBL5614382, “Discovery of a new 1-(phenylsulfonyl)-1H-indole derivative targeting the EphA2 receptor with antiproliferative activity on U251 glioblastoma cell line” (Eur J Med Chem, 2024).
